In US6472416B1, “Sulfonylphenylpyrazole compounds useful as COX-2 inhibitors” (Abbott Laboratories, priority 1999, dated 2002):

Compound | melting point [°C]
CS(=O)(=O)c1ccc(-c2nn3c(c2-c2ccc(F)cc2)OCCC3)cc1 [Example 1, 3-(4-Fluorophenyl)-2-(4-(methylsulphonyl)phenyl)-6,7-dihydro-5H-pyrazolo[5,1-b][1,3]oxazine] | 198 to 200
CS(=O)(=O)c1ccc(-c2nn3c(c2-c2ccc(F)cc2)OCCCC3)cc1 [Example 2, 3-(4-Fluorophenyl)-2-(4-(methylsulphonyl)phenyl)-5,6,7,8-tetrahydropyrazolo[5,1-b][1,3]oxazepine] | 167 to 168
CC(=O)C(C)Oc1nn(C(C)C(C)=O)c(-c2ccc(S(C)(=O)=O)cc2)c1-c1ccc(F)cc1 (centres unmarked) [Example 17, 3-[4-(4-Fluorophenyl)-5-(4-methylsulfonylphenyl)-3-(1-methyl-2-oxopropoxy)-1H-pyrazol-1-yl]butan-2-one] | 127 to 129
CC(C)n1nc(OCC(=O)c2ccc(F)cc2)c(-c2ccc(F)cc2)c1-c1ccc(S(C)(=O)=O)cc1 [Example 19, 2-{[4-(4-Fluorophenyl)-5-(4-(methylsulphonyl)phenyl)-1-isopropyl-1H-pyrazol-3-yl]oxy}-1-(4-fluorophenyl)ethan-1-one] | 184 to 185
CC(C)(C)C(=O)COc1nn(CC(=O)C(C)(C)C)c(-c2ccc(S(C)(=O)=O)cc2)c1-c1ccc(F)cc1 [Example 25, 1-[3-(3,3-Dimethyl-2-oxobutoxy)-4-(4-fluorophenyl)-5-(4-(methylsulphonyl)phenyl)-1H-pyrazol-1-yl]-3,3-dimethylbutan-2-one] | 180 to 182
CC(C)(C)C(=O)COc1nn(CC#N)c(-c2ccc(S(C)(=O)=O)cc2)c1-c1ccc(F)cc1 [Example 28, 2-[3-(3,3-Dimethyl-2-oxobutoxy)-4-(4-fluorophenyl)-5-(4-(methylsulphonyl)phenyl)-1H-pyrazol-1-yl]acetonitrile] | 156 to 159
CS(=O)(=O)c1ccc(-c2nn3c(C4C5CC6CC(C5)CC4C6)coc3c2-c2ccc(F)cc2)cc1 (centres unmarked) [Example 39, 3-(2-Adamantyl)-7-(4-fluorophenyl)-6-(4-(methylsulphonyl)phenyl)pyrazolo[5,1-b][1,3]oxazole] | 128 to 131
CC(C)(C)c1coc2c(-c3ccc(F)cc3)c(-c3ccc(S(C)(=O)=O)cc3)nn12 [Example 40, 3-(Tert-butyl)-7-(4-fluorophenyl)-6-(4-(methylsulphonyl)phenyl)pyrazolo[5,1-b][1,3]oxazole] | 181 to 182
CS(=O)(=O)c1ccc(-c2nn3c4c(oc3c2-c2ccc(F)cc2)CCCC4)cc1 [Example 42, 3-(4-Fluorophenyl)-2-(4-(methylsulphonyl)phenyl)-5,6,7,8-tetrahydropyrazolo[5,1-b][1,3]benzoxazole] | 183 to 184
CS(=O)(=O)c1ccc(-c2nn3c(C(F)(F)F)coc3c2-c2ccc(F)cc2)cc1 [Example 50, 7-(4-Fluorophenyl)-6-(4-(methylsulphonyl)phenyl)-3-(trifluoromethyl)pyrazolo[5,1-b][1,3]oxazole] | 186 to 189
CS(=O)(=O)c1ccc(-c2nn3c4c(oc3c2-c2ccc(F)cc2)COCC4)cc1 [Example 52, 3-(4-Fluorophenyl)-2-(4-methylsulfonylphenyl)-7,8-dihydro-5H-pyrazolo[5,1-b]pyrano[4,3-d][1,3]oxazole] | 200 to 201
CS(=O)(=O)c1ccc(-c2nn3c4c(oc3c2-c2ccc(F)cc2)CSCC4)cc1 [Example 53, 3-(4-Fluorophenyl)-2-(4-methylsulfonylphenyl)-7,8-dihydro-5H-pyrazolo[5,1-b]thiopyrano[4,3-d][1,3]oxazole] | 178 to 180
CCc1coc2c(-c3ccc(F)cc3)c(-c3ccc(S(N)(=O)=O)cc3)nn12 [Example 62, 6-(4-(aminosulphonyl)phenyl)-3-Ethyl-7-(4-fluorophenyl)pyrazolo[5,1-b][1,3]oxazole] | 234 to 236
CS(=O)(=O)c1ccc(-c2c(-c3ccc(F)cc3)c(OCc3c(F)cccc3Cl)nn2Cc2c(F)cccc2Cl)cc1 [Example 64, 1-(2-Chloro-6-fluorobenzyl)-3-[(2-chloro-6-fluorobenzyl)oxy]-4-(4-fluorophenyl)-5-(4-(methylsulphonyl)phenyl)-1H-pyrazole] | 195 to 196
CS(=O)(=O)c1ccc(-c2c(-c3ccc(F)cc3)c(=O)n3n2Cc2c(Cl)cccc2-3)cc1 [Example 65, 8-Chloro-2-(4-fluorophenyl)-1-(4-(methylsulphonyl)phenyl)-3H,9H-pyrazolo[1,2-a]indazol-3-one] | 237 to 240
CS(=O)(=O)c1ccc(-c2c(OCC(=O)c3ccc(F)cc3)nn(CC(=O)c3ccc(F)cc3)c2-c2ccc(F)cc2)cc1 [Example 75, 2-[5-(4-Fluorophenyl)-4-(4-(methylsulphonyl)phenyl)-3-(2-oxo-2-(4-fluorophenyl)ethoxy)-1H-pyrazol-1-yl]-1-(4-fluorophenyl)ethan-1-one] | 191 to 193

The remaining lines, values ahead:

melting point [°C] | Compound
200 to 202 | CS(=O)(=O)c1ccc(-c2nn3c(-c4ccc(F)cc4)coc3c2-c2ccc(F)cc2)cc1 [Example 36B, 3,7-Bis(4-fluorophenyl)-6-(4-(methylsulphonyl)phenyl)pyrazolo[5,1-b][1,3]oxazole]
151 to 154 | CS(=O)(=O)c1ccc(-c2nn3c(-c4ccccc4)coc3c2-c2ccc(F)cc2)cc1 [Example 37, 7-(4-Fluorophenyl)-6-(4-(methylsulphonyl)phenyl)-3-phenylpyrazolo[5,1-b][1,3]oxazole]
228 to 229 | CS(=O)(=O)c1ccc(-c2nn3c(-c4ccccc4)c(-c4ccccc4)oc3c2-c2ccc(F)cc2)cc1 [Example 38, 7-(4-Fluorophenyl)-6-(4-(methylsulphonyl)phenyl)-2,3-diphenylpyrazolo[5,1-b][1,3]oxazole]
234 to 236 | Cc1oc2c(-c3ccc(F)cc3)c(-c3ccc(S(C)(=O)=O)cc3)nn2c1-c1ccccc1 [Example 41, 7-(4-Fluorophenyl)-2-methyl-6-(4-(methylsulphonyl)phenyl)-3-phenylpyrazolo[5,1-b][1,3]oxazole]
257 to 259 | Cc1c(-c2ccc(F)cc2)oc2c(-c3ccc(F)cc3)c(-c3ccc(S(C)(=O)=O)cc3)nn12 [Example 43, 2,7-Bis(4-fluorophenyl)-3-methyl-6-(4-(methylsulphonyl)phenyl)pyrazolo[5,1-b][1,3]oxazole]
240 to 241 | Cc1oc2c(-c3ccc(F)cc3)c(-c3ccc(S(C)(=O)=O)cc3)nn2c1-c1cccs1 [Example 44, 7-(4-Fluorophenyl)-3-(2-thienyl)-2-methyl-6-(4-(methylsulphonyl)phenyl)pyrazolo[5,1-b][1,3]oxazole]
222 to 223 | Cc1oc2c(-c3ccc(F)cc3)c(-c3ccc(S(C)(=O)=O)cc3)nn2c1-c1ccc(Cl)s1 [Example 45, 3-(5-Chloro-2-thienyl)-7-(4-fluorophenyl)-2-methyl-6-(4-(methylsulphonyl)phenyl)pyrazolo[5,1-b][1,3]oxazole]
194 to 195 | Cc1c(-c2cccc(C(F)(F)F)c2)oc2c(-c3ccc(F)cc3)c(-c3ccc(S(C)(=O)=O)cc3)nn12 [Example 46, 6-(4-(Methylsulphonyl)phenyl)-7-(4-fluorophenyl)-3-methyl-2-[3-(trifluoromethyl)phenyl]pyrazolo[5,1-b][1,3]oxazole]
202 to 205 | Cc1cc(-c2coc3c(-c4ccc(F)cc4)c(-c4ccc(S(C)(=O)=O)cc4)nn23)ccc1Cl [Example 47, 3-(4-Chloro-3-methylphenyl)-7-(4-fluorophenyl)-6-(4-(methylsulphonyl)phenyl)pyrazolo[5,1-b][1,3]oxazole]
158 to 160 | Cc1oc2c(-c3ccc(F)cc3)c(-c3ccc(S(C)(=O)=O)cc3)nn2c1C [Example 48, 7-(4-Fluorophenyl)-6-(4-methylsulfonylphenyl)-2,3-dimethylpyrazolo[5,1-b][1,3]oxazole]
203 to 204 | CCOC(=O)c1oc2c(-c3ccc(F)cc3)c(-c3ccc(S(C)(=O)=O)cc3)nn2c1C [Example 51, Ethyl 7-(4-Fluorophenyl)-6-(4-methylsulfonylphenyl)-3-methylpyrazolo[5,1-b][1,3]oxazole-2-carboxylate]
236 to 238 | Cc1c(C#N)oc2c(-c3ccc(F)cc3)c(-c3ccc(S(C)(=O)=O)cc3)nn12 [Example 54, 2-Cyano-7-(4-fluorophenyl)-3-methyl-6-(4-(methylsulphonyl)phenyl)pyrazolo[5,1-b][1,3]oxazole]
235 to 237 | NS(=O)(=O)c1ccc(-c2nn3c(-c4ccc(F)cc4)coc3c2-c2ccc(F)cc2)cc1 [Example 57, 4-[3,7-Bis(4-fluorophenyl)pyrazolo[5,1-b][1,3]oxazol-6-yl]benzenesulphonamide]
197 to 199 | CC=CC(=O)c1oc2c(-c3ccc(F)cc3)c(-c3ccc(S(C)(=O)=O)cc3)nn2c1C [Example 58, 1-[7-(4-Fluorophenyl)-3-methyl-6-(4-(methylsulphonyl)phenyl)pyrazolo[5,1-b][1,3]oxazol-2-yl]but-2-en-1-one]
231 to 232 | Cc1c(C#N)oc2c(-c3ccc(F)cc3)c(-c3ccc(S(N)(=O)=O)cc3)nn12 [Example 59, 6-(4-(Aminosulphonyl)phenyl)-2-cyano-7-(4-Fluorophenyl)-3-methyl-pyrazolo[5,1-b][1,3]oxazole]
67 to 70 | CS(=O)(=O)c1ccc(-c2nn3ccoc3c2-c2ccc(F)cc2)cc1 [Example 60, 7-(4-Fluorophenyl)-6-(4-(methylsulphonyl)phenyl)pyrazolo[5,1-b][1,3]oxazole]
177 to 179 | CCc1coc2c(-c3ccc(F)cc3)c(-c3ccc(S(C)(=O)=O)cc3)nn12 [Example 61, 3-Ethyl-7-(4-fluorophenyl)-6-(4-(methylsulphonyl)phenyl)pyrazolo[5,1-b][1,3]oxazole]
289 to 291 | CS(=O)(=O)c1ccc(-c2c(-c3ccc(F)cc3)nn3c(-c4ccc(F)cc4)coc23)cc1 [Example 73, 3,6-Bis(4-fluorophenyl)-7-(4-methylsulfonylphenyl)pyrazolo[5,1-b][1,3]oxazole]
289 to 291 | Cc1c(-c2ccc(F)cc2)oc2c(-c3ccc(S(C)(=O)=O)cc3)c(-c3ccc(F)cc3)nn12 [Example 74, 2,6-Bis(4-fluorophenyl)-3-methyl-7-(4-(methylsulphonyl)phenyl)pyrazolo[5,1-b][1,3]oxazole]
